The EC50 is the midpoint of the concentration-response curve. What is called AC50 is the concentration giving half of the maximal activity seen. In general, IC50 refers to the midpoint of a concentration-inhibition curve.

Activity calls are given as the source filed them.

Test [1] in a line: alpha-synuclein stem-loop luciferase translation blockers – H4 neuroglioma cells, luminescence, confirmation (AID 1988). Type of test: functional, cell-based.
The nature of test [2]: Luminescence Cell-Based Dose Response HTS to Identify Inhibitors of 5'UTR Stem-Loop Driven Prion Protein mRNA Translation in H4 Neuroglioblastoma Cells. [Related pubchem assays: 1827 (Project Summary), 1813 (Primary HTS)]. The class given is functional.
Test [3] in a line: luciferase reporter signal suppression in cells – H4 neuroglioma cells, luminescence, dose response (AID 1990). Type of test: functional, cell-based. Background: In a reporter assay the amount or activity of a reporter protein is the signal.
Test [4] in a line: Luminescence Cell-Based Dose Retest to Confirm Inhibitors of Cancer Stem Cells. [Related pubchem assays (depositor defined):AID2717, AID2721]. The class given is functional. As to conditions: Homo sapiens.
The target of test [5] is Cytochrome P450 2C9 (Homo sapiens, UniProt P11712).
Chain of Cytochrome P450 2C9 (P11712 whole entry): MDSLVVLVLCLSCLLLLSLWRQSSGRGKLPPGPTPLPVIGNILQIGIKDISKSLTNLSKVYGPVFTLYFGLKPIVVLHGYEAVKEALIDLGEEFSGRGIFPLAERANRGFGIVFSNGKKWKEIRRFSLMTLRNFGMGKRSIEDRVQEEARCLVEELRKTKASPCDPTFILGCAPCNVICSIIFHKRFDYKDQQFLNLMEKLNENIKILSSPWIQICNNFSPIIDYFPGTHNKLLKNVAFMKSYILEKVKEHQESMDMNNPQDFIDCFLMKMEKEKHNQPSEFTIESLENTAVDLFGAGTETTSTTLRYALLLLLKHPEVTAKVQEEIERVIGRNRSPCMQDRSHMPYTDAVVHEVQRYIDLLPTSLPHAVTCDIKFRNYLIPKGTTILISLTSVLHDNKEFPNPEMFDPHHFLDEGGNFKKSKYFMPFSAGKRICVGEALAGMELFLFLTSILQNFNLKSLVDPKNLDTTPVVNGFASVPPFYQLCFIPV
The target in test [6] is Cytochrome P450 3A4 (Homo sapiens, UniProt P08684).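 Further: CYP3A4 tested as one member of a cytochrome P450 panel screen.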
Chain of Cytochrome P450 3A4 (P08684 whole entry): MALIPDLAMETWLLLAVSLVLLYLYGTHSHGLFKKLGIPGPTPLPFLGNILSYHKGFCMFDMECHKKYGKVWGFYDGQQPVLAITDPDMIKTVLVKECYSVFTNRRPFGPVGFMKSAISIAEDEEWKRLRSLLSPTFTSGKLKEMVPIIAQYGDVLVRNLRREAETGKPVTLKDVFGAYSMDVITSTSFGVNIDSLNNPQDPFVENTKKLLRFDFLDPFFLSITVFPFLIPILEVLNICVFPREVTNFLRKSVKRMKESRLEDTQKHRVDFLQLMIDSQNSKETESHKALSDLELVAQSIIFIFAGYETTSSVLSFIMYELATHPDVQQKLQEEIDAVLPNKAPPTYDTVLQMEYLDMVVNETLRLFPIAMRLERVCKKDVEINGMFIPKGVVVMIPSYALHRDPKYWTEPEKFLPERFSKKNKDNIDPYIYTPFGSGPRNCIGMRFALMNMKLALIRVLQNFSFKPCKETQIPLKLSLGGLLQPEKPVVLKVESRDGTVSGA
For test [7], the target named is Cytochrome P450 2D6 (Homo sapiens, UniProt P10635).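 Further: CYP2D6 member of a cytochrome P450 panel assay.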
Chain of Cytochrome P450 2D6 (P10635 whole entry): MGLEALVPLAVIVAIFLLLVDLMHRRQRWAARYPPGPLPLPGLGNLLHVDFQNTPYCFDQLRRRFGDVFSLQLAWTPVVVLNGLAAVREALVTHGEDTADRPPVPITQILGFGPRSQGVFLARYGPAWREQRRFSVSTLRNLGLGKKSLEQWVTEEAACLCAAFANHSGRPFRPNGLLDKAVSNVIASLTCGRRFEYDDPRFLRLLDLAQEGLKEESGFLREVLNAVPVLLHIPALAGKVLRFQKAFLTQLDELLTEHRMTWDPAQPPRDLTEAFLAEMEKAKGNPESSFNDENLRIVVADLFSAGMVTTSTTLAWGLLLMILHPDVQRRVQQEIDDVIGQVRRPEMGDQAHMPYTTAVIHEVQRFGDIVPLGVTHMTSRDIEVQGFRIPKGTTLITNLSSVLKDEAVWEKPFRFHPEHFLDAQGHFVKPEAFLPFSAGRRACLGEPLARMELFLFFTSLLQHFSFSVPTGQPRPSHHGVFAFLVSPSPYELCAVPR
The target of test [8] is T1, Cytochrome P450 1A2 (Homo sapiens, UniProt P05177).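 Further: PubChem cytochrome P450 panel assay, CYP1A2 panel member.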
T1 sequence (P05177 whole entry): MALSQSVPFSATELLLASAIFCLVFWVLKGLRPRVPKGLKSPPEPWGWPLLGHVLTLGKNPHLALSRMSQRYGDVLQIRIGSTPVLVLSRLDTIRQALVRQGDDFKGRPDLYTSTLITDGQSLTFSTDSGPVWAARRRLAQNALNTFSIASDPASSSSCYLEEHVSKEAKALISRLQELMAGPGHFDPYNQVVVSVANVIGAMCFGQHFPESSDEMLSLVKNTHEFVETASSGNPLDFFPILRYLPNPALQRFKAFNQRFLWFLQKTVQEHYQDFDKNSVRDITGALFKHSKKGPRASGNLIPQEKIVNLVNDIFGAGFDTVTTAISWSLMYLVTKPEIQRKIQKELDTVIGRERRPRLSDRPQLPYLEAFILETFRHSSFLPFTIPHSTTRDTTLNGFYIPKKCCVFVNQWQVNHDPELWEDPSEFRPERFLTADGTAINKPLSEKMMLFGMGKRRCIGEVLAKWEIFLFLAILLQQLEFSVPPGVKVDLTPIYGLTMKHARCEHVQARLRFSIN

Test [9] is described as follows: NIH-3T3 fibroblast cytotoxicity, dose response, cytotoxicity control, cell-based, fluorescence, Alamar Blue, secondary assay (AID 2327).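 Further: NIH-3T3 mouse fibroblasts cultured with fluconazole at 8 µg/mL.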 The class given is functional. Background: Resazurin is reduced to fluorescent resorufin, in cell work by metabolically active cells.
The target in test [10] is T2, Ubiquitin-conjugating enzyme E2 N (Homo sapiens, UniProt P61088).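 Further: Dose-response confirmation in a TR-FRET assay detecting UBC13-driven polyubiquitin chain formation, inhibition measured.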
T2 sequence (P61088 whole entry): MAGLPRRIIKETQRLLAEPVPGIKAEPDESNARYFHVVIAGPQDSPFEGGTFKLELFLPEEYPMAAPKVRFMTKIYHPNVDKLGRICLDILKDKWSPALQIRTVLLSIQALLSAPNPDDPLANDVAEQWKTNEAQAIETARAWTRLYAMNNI
Type of test: functional.

Test [11] in a line: Trypanosoma cruzi growth suppression in host cells – NIH3T3 host cells, beta-gal luminescence, confirmation (AID 2044).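 Further: intracellular parasites grown in NIH/3T3 mouse fibroblasts as host cells; luminescent beta-galactosidase reporter signal from transgenic T. cruzi replicating inside host cells; inhibitors lower the luminescence signal.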 Type of test: functional, cell-based.
A short description of test [12]: NIH3T3 cell viability loss – ATP luminescence, mouse fibroblasts, counter-screen, dose response (AID 2010).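 Further: cells exposed to compound for about 90 hours before reading.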 Type of test: functional, cell-based. In general terms: A counterscreen serves to expose hits that act by an unwanted route or on another target.

As for `CCNc1nc(Oc2ccc(C#N)cc2)cc(C(F)(F)F)n1`, the values for the EC50 in test [1], in test [2] and in test [3] were 11.7 µM (active), 16.8 µM (active) and 5.99 µM (active), respectively.
For the compound `CCCn1c(SCC#N)nc2c(c1=O)C1(CCCC1)Cc1ccccc1-2`, the AC50 in test [4] was 1.92 µM (active).
On to `CCOc1ccc(N/N=C(/C#N)C(N)=O)cc1`, for which the AC50 in test [5] is 15.8 µM (inconclusive); in test [6], 20 µM (inconclusive).
Consider `CCCCCCc1nnc(N)s1`, for which the concentration for a half-maximal effect (EC50) in test [1], in [2] and in test [3] was > 120 µM (not active) in each case.
For the compound `O=c1cnc2cnc(Oc3ccccc3)nc2n1Cc1cccs1`, the AC50 in test [7] is 39.8 µM (inconclusive); in test [6], 15.8 µM (inconclusive).
For the compound `O=C(Nc1ccc(Cl)c(S(=O)(=O)N2CCOCC2)c1)c1ccccc1-c1ccc(C(F)(F)F)cc1`, the EC50 in [1] is > 120 µM (not active); in test [2] it was > 120 µM (not active); in [3] it was 14.5 µM (active).
On to `c1cc(CNCCN2CCNCC2)ccn1`, for which the AC50 in test [7] is 3.98 µM (inconclusive); in test [6], 5.01 µM (inconclusive).
On to `c1cncc(-c2cc(-c3cc(-c4cccnc4)[nH]n3)n[nH]2)c1`, for which the AC50 in test [8] was 0.501 µM (inconclusive); in test [6], 5.01 µM (inconclusive).
For the compound `Cc1cc(O)c(/C=N/Nc2ccc(F)cc2)c(=O)o1`, the EC50 in [9] is 9.97 µM (active).
As for `CS(=O)(=O)N1CCC2(CC1)CN(Cc1ccncc1)C2`, the figures for the AC50 in test [7] and in test [6] were 20 µM (inconclusive) and 31.6 µM (inconclusive), respectively.
Regarding `CCOC(=O)C1CCCN(C(=O)CCNC(=O)Cn2ccc3ccccc3c2=O)C1` (configuration not stated), the EC50 was > 120 µM (not active) in test [1], 104 µM (active) in test [2] and > 120 µM (not active) in [3].
On to `O=[N+]([O-])c1ccc(Cl)c(/C=N/n2c(S)nnc2C2CCCCC2)c1`, for which the AC50 in test [4] was 36.1 µM (active).
`Cc1nc2cnc(Oc3ccccc3)nc2n(C2CC2)c1=O`: the AC50 in test [5] was 12.6 µM (inconclusive); in test [6] it was 25.1 µM (inconclusive).
`Cc1nc(N)sc1C(=O)NN`: in test [10], the IC50 is > 20 µM (inactive).
Take `COc1ccc(-c2cc(C(=O)N3CC4(C)CC3CC(C)(C)C4)no2)cc1OC` (configuration not stated): in test [4], the AC50 is 1.75 µM (active).
Still for that read-out and setting: as for `CN(C)c1ccc(/C=C(\Cl)c2nc3ccccc3s2)cc1`, the figure is 1.58 µM (active).
As to `COc1ccc(Cc2nnc(Nc3ccc(C)cc3)o2)cc1OC`, the EC50 is 11.5 µM (active) in test [1], > 120 µM (not active) in [2] and > 120 µM (not active) in test [3].
Consider `CCCCc1ccc(/C=C(\C#N)C(N)=S)s1`, for which the IC50 in test [10] is > 20 µM (inactive).
Same read-out and setting: the result for `COc1ccc(-c2oc(=O)c3cc(OC)c(OC)cc3c2C#CC2(O)CCCCC2)cc1` reads > 20 µM (inactive).
Turning to `N#CCC(=O)N/N=C/c1cn(Cc2cccc3ccccc23)c2ccccc12`, the EC50 in test [1] was 8.59 µM (active); in [2], > 120 µM (not active); in [3], 14.9 µM (active).
Take `COc1ccc(/C=N/OCC(=O)N2CC3(C)CC2CC(C)(C)C3)cc1` (configuration not stated): in test [4], the AC50 is 11.5 µM (active).
Still for that read-out and setting: as for `Cc1cccc(C(=O)Nc2ccc(C(=O)Nc3ccc(O)cc3)cc2)c1`, the figure is 2.09 µM (active).
On to `CCCn1c(=O)c(C(=O)NNS(=O)(=O)c2ccc(Cl)cc2)c(O)c2ccccc21`, for which, in test [4], the AC50 is 1.57 µM (active).
As for `CCOC(=O)C1=C(C)NC(=O)N[C@@H]1c1coc2cc(C)cc(C)c2c1=O`, the AC50 in test [8] was 2.51 µM (inconclusive); in test [6], 3.98 µM (inconclusive).
For the compound `CC(C)(C)n1nc(-c2ccc(F)cc2)c2c(N)ncnc21`, the EC50 is 20 µM (active) in test [1], 0.316 µM (active) in [11], 7.86 µM (active) in [12] and 8.68 µM (active) in test [3].

Values taken from ChEMBL document CHEMBL1201862, “PubChem BioAssay data set” (2004).
